Experiments:
[1] = Selectivity index, ratio of CTD50 for African green monkey Vero cells to EC50 for Human coxsackievirus B4 Powers; assay type: toxicity, cell-based
[2] = Cytotoxicity against African green monkey Vero cells assessed as cell viability after 72 hrs by MTT assay; assay type: cell-based; settings: chlorocebus sabaeus, read-out: CTD50
Influenza A virus = experiment: Antiviral activity against Influenza A virus (A/Puerto Rico/8/1934(H1N1)) infected in MDCK cells assessed as decrease in virus titer after 48 hrs by MTT assay; assay type: functional, organism-based
[3] = Selectivity index, ratio of CTD50 for MDCK cells to EC50 for Influenza A virus (A/Puerto Rico/8/1934(H1N1)); assay type: toxicity, cell-based; settings: dog
Coxsackievirus B4 = experiment: Antiviral activity against Human coxsackievirus B4 Powers infected in African green monkey Vero cells assessed as decrease in virus titer after 72 hrs by MTT assay; assay type: functional, organism-based; settings: Enterovirus B
[4] = Cytotoxicity against MDCK cells assessed as cell viability after 48 hrs by MTT assay; assay type: cell-based, Canis lupus familiaris; settings: dog, read-out: CTD50

| Compound | selectivity ratio [1] | CC50 at 72 h [2] | EC50 (Influenza A virus) | selectivity ratio [3] | EC50 (Coxsackievirus B4) | CC50 at 48 h [4] |
| --- | --- | --- | --- | --- | --- | --- |
| CCN(CC)CCNc1ncnc2c1ncn2[C@H]1C[C@H]2[C@H](CO)[C@@H]1C[C@@H]2Cl | 2 | 175 µM | 20 µM | 36 | > 84 µM | 731 µM |
| OC[C@H]1[C@@H]2C[C@H](n3cnc4c(NC5CCCC5)ncnc43)[C@H]1C[C@@H]2Cl | 1 | 27 µM | 15 µM | 36 | > 30 µM | 529 µM |
| OC[C@H]1[C@@H]2C[C@H](n3cnc4c(NCc5ccncc5)ncnc43)[C@H]1C[C@@H]2Cl | 2 | 166 µM | 250 µM | 3 | > 84 µM | 712 µM |
| CCN(CC)CCCNc1ncnc2c1ncn2[C@H]1C[C@H]2[C@H](CO)[C@@H]1C[C@@H]2Cl | 2 | 137 µM | > 245 µM | < 3 | > 81 µM | 664 µM |
| OC[C@H]1[C@@H]2C[C@H](n3cnc4c(NCc5cccnc5)ncnc43)[C@H]1C[C@@H]2Cl | 2 | 204 µM | 122 µM | 5 | > 86 µM | 554 µM |
| OC[C@@H]1[C@@H]2C[C@H](Cl)[C@H]1C[C@@H]2Nc1ncnc2c1ncn2[C@H]1C[C@H]2[C@H](CO)[C@@H]1C[C@@H]2Cl | 3 | 213 µM | 10 µM | > 73 | 61 µM | > 704 µM |
| CCN(CC)c1ncnc2c1ncn2[C@H]1C[C@H]2[C@H](CO)[C@@H]1C[C@@H]2Cl | 2 | 182 µM | 22 µM | 18 | > 94 µM | 385 µM |
| O=c1ccn([C@H]2C[C@H]3[C@H](CO)[C@@H]2C[C@@H]3Cl)c(=O)[nH]1 | 1 | 172 µM | 64 µM | > 19 | > 367 µM | > 1210 µM |
| CN1CCN(Nc2ncnc3c2ncn3[C@H]2C[C@H]3[C@H](CO)[C@@H]2C[C@@H]3Cl)CC1 | 1 | 255 µM | 12 µM | 73 | > 255 µM | 840 µM |
| Cc1cn([C@H]2C[C@H]3[C@H](CO)[C@@H]2C[C@@H]3Cl)c(=O)[nH]c1=O | 1 | 57 µM | 352 µM | > 3 | > 352 µM | > 1160 µM |
| OC[C@H]1[C@@H]2C[C@H](n3cnc4c(NCCc5ccc(O)cc5)ncnc43)[C@H]1C[C@@H]2Cl | 6 | 108 µM | 48 µM | > 16 | 18 µM | > 795 µM |
| CN(C)c1ncnc2c1ncn2[C@H]1C[C@H]2[C@H](CO)[C@@H]1C[C@@H]2Cl | 9 | 235 µM | 112 µM | 8 | 28 µM | 929 µM |
| Nc1ncnc2c1ncn2[C@H]1C[C@H]2[C@H](CO)[C@@H]1C[C@@H]2Cl | 3 | 332 µM | 8 µM | > 150 | > 112 µM | > 1120 µM |
| OC[C@H]1[C@@H]2C[C@H](n3cnc4c(NC5CCCCC5)ncnc43)[C@H]1C[C@@H]2Cl | 1 | 14 µM | 91 µM | 6 | > 11 µM | 528 µM |
| OC[C@H]1[C@@H]2C[C@H](n3cnc4c(N5CCOCC5)ncnc43)[C@H]1C[C@@H]2Cl | 1 | 97 µM | 19 µM | 54 | > 90 µM | 997 µM |
| CN1CCN(c2ncnc3c2ncn3[C@H]2C[C@H]3[C@H](CO)[C@@H]2C[C@@H]3Cl)CC1 | 3 | 227 µM | 25 µM | 39 | > 87 µM | 1000 µM |
| OC[C@@H](Cc1ccccc1)Nc1ncnc2c1ncn2[C@H]1C[C@H]2[C@H](CO)[C@@H]1C[C@@H]2Cl | 141 | 197 µM | 131 µM | 3 | 1 µM | 410 µM |
| OC[C@H]1[C@@H]2C[C@H](n3cnc4c(NC5CC5)ncnc43)[C@H]1C[C@@H]2Cl | 15 | 247 µM | 8 µM | 151 | 17 µM | 1130 µM |

From ChEMBL document CHEMBL3611975, “New carbocyclic N(6)-substituted adenine and pyrimidine nucleoside analogues with a bicyclo[2.2.1]heptane fragment as sugar moiety; synthesis, antiviral, anticancer activity and X-ray crystallography” (Bioorg Med Chem, 2015)
